Where two headings read alike, the source gives them in different places.
Biological target: T1, GST-tagged ROR gamma ligand binding domain (LBD) (Homo sapiens, UniProt P51449)
T1 construct: purchased Invitrogen
T1 sequence (P51449 269-508 limits assumed): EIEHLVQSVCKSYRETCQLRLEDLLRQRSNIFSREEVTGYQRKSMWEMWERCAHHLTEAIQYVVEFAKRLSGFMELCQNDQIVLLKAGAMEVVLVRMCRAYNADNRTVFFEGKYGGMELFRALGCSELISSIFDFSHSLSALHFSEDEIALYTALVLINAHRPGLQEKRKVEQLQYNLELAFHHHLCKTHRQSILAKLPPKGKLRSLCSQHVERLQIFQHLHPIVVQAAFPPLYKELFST
Assay: TR-FRET assay for ROR gamma (Lantha Screen, co-activator peptide recruitment)
Format: biochemical
Conditions: for IC50: class symbols, from dose response curve, read-out: IC50 value; for inhibition at 1 µM: read-out: % inhibition at 1 μM; for inhibition at 10 µM: read-out: % inhibition at 10 μM

[1] = compound concentration 1 μM, TR-FRET ratio 520/495, percent of control
[2] = compound concentration 10 μM, TR-FRET ratio 520/495, percent of control

SMILES | IC50 | inhibition at 1 µM [1] | inhibition at 10 µM [2] | inhibition at 1 µM | inhibition at 10 µM
O=C(O)c1ccc(-n2nc(C(=O)c3c(Cl)cccc3Cl)c3cccnc32)cc1 [Example 36, 4-{3-[(2,6-Dichlorophenyl)carbonyl]-1H-pyrazolo[3,4-b]pyridin-1-yl}benzoic acid] | < 50 nM | 95.7% | 96.4% | – | –
O=C(O)c1ccc(-n2nc(C(=O)c3c(Cl)cccc3C3CC3)c3cccnc32)cc1 [Example 37, 4-{3-[(2-Chloro-6-cyclopropylphenyl)carbonyl]-1H-pyrazolo[3,4-b]pyridin-1-yl}benzoic acid] | < 50 nM | 97.6% | 94.6% | – | –
O=C(O)c1ccc(-n2nc(C(=O)c3c(Cl)cccc3C(F)(F)F)c3cccnc32)cc1 [Example 38, 4-(3-{[2-Chloro-6-(trifluoromethyl)phenyl]carbonyl}-1H-pyrazolo[3,4-b]pyridin-1-yl)benzoic acid] | < 50 nM | 96.8% | 93.5% | – | –
CCOC(=O)c1ccc(-n2cc(C(=O)c3c(Cl)cccc3Cl)c3ccccc32)c(F)c1 [Example 39, Ethyl 4-{3-[(2,6-dichlorophenyl)carbonyl]-1H-indol-1-yl}-3-fluorobenzoate] | – | – | – | 15.4% | 25%
CCCOC(=O)c1ccc(-n2cc(C(=O)c3c(Cl)cccc3Cl)c3ccccc32)c(F)c1 [Example 40, Propyl 4-{3-[(2,6-dichlorophenyl)carbonyl]-1H-indol-1-yl}-3-fluorobenzoate] | – | – | – | 9.11% | –
CCCCOC(=O)c1ccc(-n2cc(C(=O)c3c(Cl)cccc3Cl)c3ccccc32)c(F)c1 [Example 41, Butyl 4-{3-[(2,6-dichlorophenyl)carbonyl]-1H-indol-1-yl}-3-fluorobenzoate] | – | – | – | 5.13% | –
CCOC(=O)c1ccc(-n2cc(C(=O)c3c(Cl)cccc3Cl)c3cccc(F)c32)c(F)c1 [Example 42, Ethyl 4-[3-(2,6-dichloro-benzoyl)-7-fluoro-1H-indol-1-yl]-3-fluorobenzoate] | – | – | – | 0.61% | –
CCCOC(=O)c1ccc(-n2cc(C(=O)c3c(Cl)cccc3Cl)c3cccc(F)c32)c(F)c1 [Example 43, Propyl 4-[3-(2,6-dichloro-benzoyl)-7-fluoro-1H-indol-1-yl]-3-fluorobenzoate] | – | – | – | 6.99% | 1.02%
CCCCOC(=O)c1ccc(-n2cc(C(=O)c3c(Cl)cccc3Cl)c3cccc(F)c32)c(F)c1 [Example 44, Butyl 4-[3-(2,6-dichloro-benzoyl)-7-fluoro-1H-indol-1-yl]-3-fluorobenzoate] | – | – | – | 3.55% | 2.25%
CCOC(=O)c1ccc(-n2nc(Oc3c(Cl)cccc3C(F)(F)F)c3ccccc32)c(F)c1 [Example 45, Ethyl 4-{3-[2-chloro-6-(trifluoromethyl)phenoxy]-1H-indazol-1-yl}-3-fluorobenzoate] | 50 to 100 nM | 97.9% | 93.7% | – | –
CCCOC(=O)c1ccc(-n2nc(Oc3c(Cl)cccc3C(F)(F)F)c3ccccc32)c(F)c1 [Example 46, Propyl 4-{3-[2-chloro-6-(trifluoromethyl)phenoxy]-1H-indazol-1-yl}-3-fluorobenzoate] | – | 10.9% | 28.5% | – | –
CCCCOC(=O)c1ccc(-n2nc(Oc3c(Cl)cccc3C(F)(F)F)c3ccccc32)c(F)c1 [Example 47, Butyl 4-{3-[2-chloro-6-(trifluoromethyl)phenoxy]-1H-indazol-1-yl}-3-fluorobenzoate] | – | 52% | 91.9% | – | –
CC(C)OC(=O)c1ccc(-n2nc(Oc3c(Cl)cccc3C(F)(F)F)c3ccccc32)c(F)c1 [Example 48, Isopropyl 4-{3-[2-chloro-6-(trifluoromethyl)phenoxy]-1H-indazol-1-yl}-3-fluorobenzoate] | – | 26.3% | 84.6% | – | –
